From patent publication US10227342B2 (ARIAD PHARMACEUTICALS, INC., priority 2014, dated 2019)

Tests used:
Format in all cases: cell-based
[1] = target: human EGFR exon 20 insertion NPG (H773_V774insNPG) (Homo sapiens, UniProt P00533, INS773NPG, cells depend on it); experiment: Ba/F3-EGFR-Exon20-NPG cell anti-proliferative assay (CellTiter 96 MTS, 72 h); conditions: read-out: EGFR exon 20 NPG insertion IC50
[2] = target: human EGFR exon 20 insertion ASV (V769_D770insASV) (Homo sapiens (Human), UniProt P00533, INS769ASV); experiment: Ba/F3-EGFR-Exon20-ASV cell anti-proliferative assay (CellTiter 96 MTS, 72 h); conditions: Ba/F3-EGFR-Exon20-ASV cells;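 note: Ba/F3 cells bearing the EGFR exon 20 ASV insertion, a line able to proliferate without IL-3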
[3] = target: Her2 exon 20 YVMA insertion (A775_G776ins YVMA) (Homo sapiens (Human), UniProt P04626, INS775YVMA); experiment: Ba/F3-Her2 Exon20 YVMA cell anti-proliferative assay (CellTiter 96 MTS, 72 h); conditions: Ba/F3-Her2 Exon20 YVMA cells
Text: Ba/F3 cells expressing Her2 Exon20 YVMA insertions (named Ba/F3-Her2 Exon20 YVMA) can proliferate in the absence of IL-3.

[4] = target: human EGFR E746-A750 deletion and T790M Mutation (DT) (Homo sapiens (Human), UniProt P00533, DEL746-750/T790M); experiment: Ba/F3-EGFR-Del/T790M cell anti-proliferative assay (CellTiter 96 MTS, 72 h); conditions: Ba/F3-EGFR-Del/T790M cells; for IC50: read-out: EGFR exon 19 deletion and T790M mutation IC50
Sequence of human EGFR E746-A750 deletion and T790M Mutation (DT) (P00533 other isoform, or with tags, fused parts or gaps T790M/del E746-A750): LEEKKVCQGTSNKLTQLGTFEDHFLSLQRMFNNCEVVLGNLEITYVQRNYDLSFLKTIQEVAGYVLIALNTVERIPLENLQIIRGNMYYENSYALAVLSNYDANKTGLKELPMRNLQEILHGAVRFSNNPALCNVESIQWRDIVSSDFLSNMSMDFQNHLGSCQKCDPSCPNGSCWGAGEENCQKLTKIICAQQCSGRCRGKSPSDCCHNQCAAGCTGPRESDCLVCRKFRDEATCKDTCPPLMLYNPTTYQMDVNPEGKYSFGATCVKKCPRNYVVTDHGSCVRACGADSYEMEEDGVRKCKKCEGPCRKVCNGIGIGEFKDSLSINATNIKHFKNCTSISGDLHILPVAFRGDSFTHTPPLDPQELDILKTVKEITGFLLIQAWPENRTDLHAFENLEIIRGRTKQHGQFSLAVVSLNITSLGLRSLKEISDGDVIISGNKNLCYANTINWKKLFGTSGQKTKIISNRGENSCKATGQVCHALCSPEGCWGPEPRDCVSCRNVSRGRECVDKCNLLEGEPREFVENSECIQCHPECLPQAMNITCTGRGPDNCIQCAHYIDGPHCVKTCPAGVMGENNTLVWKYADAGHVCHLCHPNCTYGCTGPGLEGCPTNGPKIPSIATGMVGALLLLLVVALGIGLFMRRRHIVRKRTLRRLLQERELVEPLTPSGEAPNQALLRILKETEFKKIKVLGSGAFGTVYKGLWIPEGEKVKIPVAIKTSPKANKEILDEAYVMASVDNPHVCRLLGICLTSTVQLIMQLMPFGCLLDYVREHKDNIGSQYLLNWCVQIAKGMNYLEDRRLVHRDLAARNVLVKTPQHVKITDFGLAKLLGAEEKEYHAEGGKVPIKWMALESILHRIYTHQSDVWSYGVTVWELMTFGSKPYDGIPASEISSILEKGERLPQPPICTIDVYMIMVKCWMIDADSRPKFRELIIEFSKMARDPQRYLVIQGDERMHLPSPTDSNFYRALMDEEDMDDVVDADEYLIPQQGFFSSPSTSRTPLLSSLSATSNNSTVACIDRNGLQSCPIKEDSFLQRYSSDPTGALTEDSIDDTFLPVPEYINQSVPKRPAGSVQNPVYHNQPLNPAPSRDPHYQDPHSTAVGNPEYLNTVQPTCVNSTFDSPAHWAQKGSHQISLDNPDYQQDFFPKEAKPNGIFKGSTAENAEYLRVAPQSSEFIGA

Sequence of human EGFR exon 20 insertion ASV (V769_D770insASV) (P00533 other isoform, or with tags, fused parts or gaps ins ASV behind 769): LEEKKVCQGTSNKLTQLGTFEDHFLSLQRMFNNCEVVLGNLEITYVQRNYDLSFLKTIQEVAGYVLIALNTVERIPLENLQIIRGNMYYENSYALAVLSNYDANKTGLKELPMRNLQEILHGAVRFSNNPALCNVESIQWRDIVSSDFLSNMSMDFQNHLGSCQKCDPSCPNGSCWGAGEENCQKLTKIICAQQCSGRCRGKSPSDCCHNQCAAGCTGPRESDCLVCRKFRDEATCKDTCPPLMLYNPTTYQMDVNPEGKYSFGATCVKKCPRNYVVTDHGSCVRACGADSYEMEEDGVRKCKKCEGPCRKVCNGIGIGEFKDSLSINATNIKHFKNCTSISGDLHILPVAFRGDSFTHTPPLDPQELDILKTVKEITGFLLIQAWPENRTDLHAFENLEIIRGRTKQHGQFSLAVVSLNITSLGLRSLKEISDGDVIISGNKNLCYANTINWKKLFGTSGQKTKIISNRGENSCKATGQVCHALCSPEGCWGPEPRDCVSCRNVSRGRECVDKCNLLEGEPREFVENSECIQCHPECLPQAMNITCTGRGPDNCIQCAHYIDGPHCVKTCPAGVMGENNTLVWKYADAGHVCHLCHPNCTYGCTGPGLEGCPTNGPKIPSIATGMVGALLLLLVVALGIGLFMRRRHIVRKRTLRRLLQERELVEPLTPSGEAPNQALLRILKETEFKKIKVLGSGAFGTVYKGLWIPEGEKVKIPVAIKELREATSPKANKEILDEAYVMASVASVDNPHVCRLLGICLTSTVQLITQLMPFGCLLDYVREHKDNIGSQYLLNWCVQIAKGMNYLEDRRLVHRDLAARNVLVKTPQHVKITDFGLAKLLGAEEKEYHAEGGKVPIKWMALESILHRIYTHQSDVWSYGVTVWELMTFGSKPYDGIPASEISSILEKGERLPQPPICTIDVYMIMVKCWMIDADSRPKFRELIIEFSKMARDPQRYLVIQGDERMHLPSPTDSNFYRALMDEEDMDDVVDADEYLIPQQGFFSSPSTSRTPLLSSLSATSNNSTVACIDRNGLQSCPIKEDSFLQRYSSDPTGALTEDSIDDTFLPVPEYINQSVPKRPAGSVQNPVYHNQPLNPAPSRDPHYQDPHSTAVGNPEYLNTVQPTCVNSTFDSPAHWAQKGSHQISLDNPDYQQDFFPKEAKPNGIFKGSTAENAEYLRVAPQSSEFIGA
Sequence of Her2 exon 20 YVMA insertion (A775_G776ins YVMA) (P04626 other isoform, or with tags, fused parts or gaps ins YVMA behind 775): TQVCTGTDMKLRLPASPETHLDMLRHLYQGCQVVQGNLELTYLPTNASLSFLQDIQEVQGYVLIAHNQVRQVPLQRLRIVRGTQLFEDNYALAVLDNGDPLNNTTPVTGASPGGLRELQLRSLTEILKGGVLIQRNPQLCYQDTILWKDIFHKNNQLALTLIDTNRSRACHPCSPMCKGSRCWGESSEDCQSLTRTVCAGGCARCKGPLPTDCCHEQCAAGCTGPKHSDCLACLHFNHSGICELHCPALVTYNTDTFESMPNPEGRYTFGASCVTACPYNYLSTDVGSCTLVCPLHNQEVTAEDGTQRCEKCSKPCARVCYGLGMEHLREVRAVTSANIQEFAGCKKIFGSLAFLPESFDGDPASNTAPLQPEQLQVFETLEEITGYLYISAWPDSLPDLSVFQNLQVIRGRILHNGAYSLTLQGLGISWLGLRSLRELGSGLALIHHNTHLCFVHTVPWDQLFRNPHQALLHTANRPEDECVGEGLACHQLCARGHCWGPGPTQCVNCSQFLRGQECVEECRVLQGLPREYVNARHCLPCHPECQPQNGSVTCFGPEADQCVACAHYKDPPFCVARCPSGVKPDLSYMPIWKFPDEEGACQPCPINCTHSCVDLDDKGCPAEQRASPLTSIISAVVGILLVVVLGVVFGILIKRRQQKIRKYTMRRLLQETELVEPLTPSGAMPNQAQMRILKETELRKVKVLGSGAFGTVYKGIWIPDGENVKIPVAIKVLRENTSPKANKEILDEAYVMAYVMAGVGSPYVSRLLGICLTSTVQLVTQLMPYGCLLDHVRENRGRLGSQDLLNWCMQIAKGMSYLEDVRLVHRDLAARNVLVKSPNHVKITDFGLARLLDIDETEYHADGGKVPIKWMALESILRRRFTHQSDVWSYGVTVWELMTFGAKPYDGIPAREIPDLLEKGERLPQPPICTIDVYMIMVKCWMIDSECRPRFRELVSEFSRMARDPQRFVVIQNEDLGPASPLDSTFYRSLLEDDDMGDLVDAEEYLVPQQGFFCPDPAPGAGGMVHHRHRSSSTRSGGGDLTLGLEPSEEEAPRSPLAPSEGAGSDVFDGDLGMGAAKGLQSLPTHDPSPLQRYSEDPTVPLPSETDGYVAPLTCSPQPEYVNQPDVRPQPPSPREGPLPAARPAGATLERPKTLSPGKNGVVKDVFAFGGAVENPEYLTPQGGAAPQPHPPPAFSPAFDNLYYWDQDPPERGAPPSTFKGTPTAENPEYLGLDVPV
Sequence of human EGFR exon 20 insertion NPG (H773_V774insNPG) (P00533 with tags, fused parts or gaps INS773NPG limits assumed): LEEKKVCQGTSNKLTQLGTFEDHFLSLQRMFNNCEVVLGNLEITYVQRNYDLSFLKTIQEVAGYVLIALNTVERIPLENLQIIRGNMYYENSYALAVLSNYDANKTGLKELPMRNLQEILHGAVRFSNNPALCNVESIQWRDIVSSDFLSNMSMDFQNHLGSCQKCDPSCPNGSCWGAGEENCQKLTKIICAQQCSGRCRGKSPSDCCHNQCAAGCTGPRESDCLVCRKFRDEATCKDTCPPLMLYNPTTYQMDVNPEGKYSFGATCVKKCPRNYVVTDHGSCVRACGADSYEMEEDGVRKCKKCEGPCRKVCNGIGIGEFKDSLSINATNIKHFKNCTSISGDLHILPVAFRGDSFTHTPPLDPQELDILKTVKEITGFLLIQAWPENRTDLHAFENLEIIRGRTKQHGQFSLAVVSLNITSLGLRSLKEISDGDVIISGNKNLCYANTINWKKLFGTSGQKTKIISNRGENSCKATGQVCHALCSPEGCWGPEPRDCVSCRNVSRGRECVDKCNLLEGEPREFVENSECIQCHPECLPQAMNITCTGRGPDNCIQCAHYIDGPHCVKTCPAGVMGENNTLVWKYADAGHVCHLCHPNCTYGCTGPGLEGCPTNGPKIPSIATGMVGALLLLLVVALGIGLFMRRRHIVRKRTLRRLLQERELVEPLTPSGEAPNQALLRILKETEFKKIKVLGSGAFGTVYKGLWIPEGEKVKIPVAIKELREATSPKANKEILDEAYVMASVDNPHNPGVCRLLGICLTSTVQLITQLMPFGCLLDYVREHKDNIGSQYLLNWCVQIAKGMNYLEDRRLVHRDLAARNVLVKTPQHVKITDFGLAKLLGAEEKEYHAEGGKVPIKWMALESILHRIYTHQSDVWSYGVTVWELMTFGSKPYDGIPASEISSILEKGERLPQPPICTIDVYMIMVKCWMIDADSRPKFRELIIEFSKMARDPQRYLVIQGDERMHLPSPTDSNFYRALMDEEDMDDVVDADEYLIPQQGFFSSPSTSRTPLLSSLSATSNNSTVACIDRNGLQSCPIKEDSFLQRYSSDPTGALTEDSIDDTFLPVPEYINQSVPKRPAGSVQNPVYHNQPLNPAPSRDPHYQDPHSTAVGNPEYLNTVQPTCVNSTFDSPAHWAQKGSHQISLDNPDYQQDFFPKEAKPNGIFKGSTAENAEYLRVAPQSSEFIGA

SMILES	IC50 [1]	IC50 [2]	IC50 [3]	IC50 [4]	EGFR exon 19 deletion and T790M mutation IC50 [4]
C=CC(=O)Nc1ccc(OC)c(Nc2ncc(C#N)c(-c3cn(C)c4cc(OCCN5CCCC5)ccc34)n2)c1 [Example 20, N-(3-((5-cyano-4-(1-methyl-6-(2-(pyrrolidin-1-yl)ethoxy)-1H-indol-3-yl)pyrimidin-2-yl)amino)-4-methoxyphenyl)acrylamide]	< 100 nM	100 to 500 nM	500 to 1000 nM	< 100 nM	–
C=CC(=O)Nc1cc(Nc2ncc(C(=O)OC)c(-c3cn(C)c4ccccc34)n2)c(OC)cc1N(C)CCN(C)C [Example 8, methyl 2-((5-acrylamido-4-((2-(dimethylamino)ethyl)(methyl)amino)-2-methoxyphenyl)amino)-4-(1-methyl-1H-indol-3-yl)pyrimidine-5-carboxylate]	< 100 nM	< 100 nM	< 100 nM	< 100 nM	–
C=CC(=O)Nc1cc(Nc2ncc(C(=O)OCC)c(-c3cn(C)c4ccccc34)n2)c(OC)cc1N(C)C[C@H]1CCCN1C [Example 65, ethyl (R)-2-((5-acrylamido-2-methoxy-4-(methyl((1-methylpyrrolidin-2-yl)methyl)amino)phenyl)amino)-4-(1-methyl-1H-indol-3-yl)pyrimidine-5-carboxylate]	< 100 nM	< 100 nM	< 100 nM	< 100 nM	–
C=CC(=O)Nc1cc(Nc2ncc(C(=O)OC(C)C)c(-c3nn(C)c4ccccc34)n2)c(OC)cc1N(C)CCN(C)C [Example 59, isopropyl 2-((5-acrylamido-4-((2-(dimethylamino)ethyl)(methyl)amino)-2-methoxyphenyl)amino)-4-(1-methyl-1H-indazol-3-yl)pyrimidine-5-carboxylate]	< 100 nM	< 100 nM	< 100 nM	< 100 nM	–
C=CC(=O)Nc1cc(Nc2nccc(-c3cn(C)c4cccc(C(=O)OC)c34)n2)c(OC)cc1N(C)CCN(C)C [Example 80, methyl 3-(2-((5-acrylamido-4-((2-(dimethylamino)ethyl)(methyl)amino)-2-methoxyphenyl)amino)pyrimidin-4-yl)-1-methyl-1H-indole-4-carboxylate]	> 1000 nM	> 1000 nM	> 1000 nM	–	D (Group D compounds have an IC50 value for the indicated mutant greater than about 1 μM)
C=CC(=O)Nc1cc(Nc2ncc(NC(=O)C(C)C)c(-c3cn(C)c4ccccc34)n2)c(OC)cc1N(C)CCN(C)C [Example 39, N-(2-((2-(dimethylamino)ethyl)-(methyl)amino)-5-((5-isobutyramido-4-(1-methyl-1H-indol-3-yl)pyrimidin-2-yl)amino)-4-methoxyphenyl)-acrylamide]	< 100 nM	100 to 500 nM	> 1000 nM	> 1000 nM	–
C=CC(=O)Nc1cc(Nc2ncc(C(=O)OC)c(-n3ccc4ccccc43)n2)c(OC)cc1N(C)C[C@H]1CCCN1C [Example 63, methyl (R)-2-((5-acrylamido-2-methoxy-4-(methyl((1-methylpyrrolidin-2-yl)methyl)amino)phenyl)amino)-4-(1H-indol-1-yl)pyrimidine-5-carboxylate]	< 100 nM	< 100 nM	500 to 1000 nM	< 100 nM	–
C=CC(=O)Nc1cc(Nc2ncnc(-c3c(-c4ccccc4)n(C)c4ccccc34)n2)c(OC)cc1N(C)CCN(C)C [Example 3, N-(2-((2-(dimethylamino)ethyl)(methyl)amino)-4-methoxy-5-((4-(1-methyl-2-phenyl-1H-indol-3-yl)-1,3,5-triazin-2-yl)amino)phenyl)acrylamide]	< 100 nM	< 100 nM	100 to 500 nM	< 100 nM	–
C=CC(=O)Nc1cc(Nc2nccc(-c3cn(C)c4ccc(C(=O)OC)cc34)n2)c(OC)cc1N(C)CCN(C)C [Example 81, methyl 3-(2-((5-acrylamido-4-((2-(dimethylamino)ethyl)(methyl)amino)-2-methoxyphenyl)amino)pyrimidin-4-yl)-1-methyl-1H-indole-5-carboxylate]	< 100 nM	100 to 500 nM	500 to 1000 nM	< 100 nM	–
C=CC(=O)Nc1cc(Nc2ncc(C(=O)OC(C)C)c(-c3cnn4ccccc34)n2)c(OC)cc1N(C)CCN(C)C [Example 32, isopropyl 2-((5-acrylamido-4-((2-(dimethylamino)ethyl)(methyl)amino)-2-methoxyphenyl)amino)-4-(pyrazolo[1,5-a]pyridin-3-yl)pyrimidine-5-carboxylate]	< 100 nM	< 100 nM	< 100 nM	< 100 nM	–
C=CC(=O)Nc1cc(Nc2ncc(C(=O)OC)c(-c3cn(C)c4ccccc34)n2)c(OC)cc1N(C)CC1CCCN1C (centres unmarked) [Example 16, methyl 2-((5-acrylamido-2-methoxy-4-(methyl((1-methylpyrrolidin-2-yl)methyl)amino)phenyl)amino)-4-(1-methyl-1H-indol-3-yl)pyrimidine-5-carboxylate]	< 100 nM	< 100 nM	100 to 500 nM	< 100 nM	–
C=CC(=O)Nc1cc(Nc2ncc(C(=O)OCC3CC3)c(-c3cn(C)c4ccccc34)n2)c(OC)cc1N(C)CCN(C)C [Example 13, cyclopropylmethyl 2-((5-acrylamido-4-((2-(dimethylamino)ethyl)(methyl)amino)-2-methoxyphenyl)amino)-4-(1-methyl-1H-indol-3-yl)pyrimidine-5-carboxylate]	< 100 nM	< 100 nM	< 100 nM	< 100 nM	–
C=CC(=O)Nc1cc(Nc2ncc(N(C)C(=O)C(C)C)c(-c3cn(C)c4ccccc34)n2)c(OC)cc1N(C)CCN(C)C [Example 40, N-(2-((2-(dimethylamino)ethyl)-(methyl)-amino)-4-methoxy-5-((4-(1-methyl-1H-indol-3-yl)-5-(N-methylisobutyramido)-pyrimidin-2-yl)amino)phenyl)acrylamide]	100 to 500 nM	100 to 500 nM	> 1000 nM	–	C (Group C compounds have an IC50 value for the indicated mutant between greater than about 500 to about 1 μM)
C=CC(=O)Nc1cc(Nc2ncc(C#N)c(-c3nn(C)c4ccccc34)n2)c(OC)cc1N(C)CCN(C)C [Example 98, N-(5-((5-cyano-4-(1-methyl-1H-indazol-3-yl)pyrimidin-2-yl)amino)-2-((2-(dimethylamino)ethyl)(methyl)amino)-4-methoxyphenyl)acrylamide]	< 100 nM	< 100 nM	< 100 nM	< 100 nM	–
C=CC(=O)Nc1ccc(OC)c(Nc2ncc(C#N)c(-c3cn(C)c4cc(OCCCN(C)C)ccc34)n2)c1 [Example 19, N-(3-((5-cyano-4-(6-(3-(dimethylamino)propoxy)-1-methyl-1H-indol-3-yl)pyrimidin-2-yl)amino)-4-methoxyphenyl)acrylamide]	< 100 nM	100 to 500 nM	500 to 1000 nM	< 100 nM	–
C=CC(=O)Nc1cc(Nc2ncc(C(=O)OC(C)C)c(-c3cn(C4CC4)c4ccccc34)n2)c(OC)cc1N(C)CCN(C)C [Example 79, isopropyl 2-((5-acrylamido-4-((2-(dimethylamino)ethyl)(methyl)amino)-2-methoxyphenyl)amino)-4-(1-cyclopropyl-1H-indol-3-yl)pyrimidine-5-carboxylate]	< 100 nM	< 100 nM	100 to 500 nM	< 100 nM	–
C=CC(=O)Nc1cc(Nc2ncc(C(=O)OC(C)C)c(-c3c[nH]c4ccccc34)n2)c(OC)cc1N(C)C[C@H]1CCCN1C [Example 64, isopropyl (R)-2-((5-acrylamido-2-methoxy-4-(methyl((1-methylpyrrolidin-2-yl)methyl)amino)phenyl)amino)-4-(1H-indol-3-yl)pyrimidine-5-carboxylate]	< 100 nM	< 100 nM	< 100 nM	< 100 nM	–
C=CC(=O)Nc1cc(Nc2ncc(C(=O)OCC#N)c(-c3cn(C)c4ccccc34)n2)c(OC)cc1N(C)CCN(C)C [Example 38, cyanomethyl 2-((5-acrylamido-4-((2-(dimethylamino)ethyl)(methyl)amino)-2-methoxyphenyl)amino)-4-(1-methyl-1H-indol-3-yl)pyrimidine-5-carboxylate]	< 100 nM	< 100 nM	< 100 nM	< 100 nM	–
C=CC(=O)Nc1cc(Nc2ncc(C(=O)OC(C)C)c(-c3coc4ccccc34)n2)c(OC)cc1N(C)C[C@H]1CCCN1C [Example 62, isopropyl (R)-2-((5-acrylamido-2-methoxy-4-(methyl((1-methylpyrrolidin-2-yl)methyl)amino)phenyl)amino)-4-(benzofuran-3-yl)pyrimidine-5-carboxylate]	< 100 nM	< 100 nM	100 to 500 nM	< 100 nM	–
C=CC(=O)Nc1cc(Nc2ncc(C(=O)OC(C)CC)c(-c3cn(C)c4ccccc34)n2)c(OC)cc1N(C)CCN(C)C (centres unmarked) [Example 29, sec-butyl 2-((5-acrylamido-4-((2-(dimethylamino)ethyl)(methyl)amino)-2-methoxyphenyl)amino)-4-(1-methyl-1H-indol-3-yl)pyrimidine-5-carboxylate]	< 100 nM	< 100 nM	< 100 nM	< 100 nM	–
